Measured values taken from patent US20130053357A1, “SKIN IRRITATION SUPPRESSANT AND TRANSDERMAL PREPARATION” (HISAMITSU PHARMACEUTICAL CO., INC., priority 2010, published 2013).
Structures can show the parent of a compound that is named as a salt. Where two headings read alike, the source gives them in different places.

Tests used:
[1] = system: human three-dimensional culture epidermal model (LabCyte EPI-MODEL); assay: Suppression by cholesterol of skin irritation mediator production induced by drugs in a human epidermal cell (Experiment 2); assay type: cell-based
Method: (§1) A human three-dimensional epidermal culture model obtained by multilayer-culturing a human normal epidermal cell (LabCyte EPI-MODEL, manufactured by Japan Tissue Engineering Co., Ltd.) was used. LabCyte is a cultured skin cultured in a transwell. For the experiment, LabCyte was used with the transwell.
(§2) The experiment was conducted as below. First, LabCyte was put into a 24-well assay plate. Then, 1 ml of assay medium (Japan Tissue Engineering Co., Ltd.) was added so that it was brought into contact with a bottom surface of the cultured skin in each well of the 24-well assay plate, and was pre-cultured in an incubator with 5% of carbon dioxide concentration at 37° C. for 1 hour.
(§3) The test solutions of each group were added to the cells, the culture solutions incubated for 48 hours were collected, and a production amount of each skin irritation mediator was measured. The skin irritation mediator was measured by using a commercially available ELISA kit (manufactured by R&D Systems, Inc.). A relative production amount of the skin irritation mediator in each test substance was calculated as below, when the production amount of the skin irritation mediator in the PMA Only Group was set to 100.
Cholesterol was used as a test substance. The drugs shown in Table 2 were used as the cutaneous irritants.
Tests were conducted by the following group composition. • Drug Only Group: A group with addition of only the drug dispersed in a vehicle, as a test solution. Concentrations of the drugs are shown in Table 2. • Drug Plus Cholesterol Group: A group with addition of the drug and 1% by mass of cholesterol which were dispersed in a vehicle, as a test solution.
The experiment was conducted while other conditions were set in the same manner as in Experiment 1.

[2] = system: human three-dimensional culture epidermal model (LabCyte EPI-MODEL); assay: Production of skin irritation mediators induced by PMA in human three-dimensional epidermal culture model (Experiment 1); assay type: cell-based; settings: for activity at 1 %: Homo sapiens
Text: Changes in production amounts of skin irritation mediators by test substances were examined when cutaneous irritants were caused to act on a human three-dimensional culture epidermal model.
as §1
As test substances, there were used cholesterol (manufactured by Wako Pure Chemical Industries, Ltd.), β-sitosterol (manufactured by TAMA BIOCHEMICAL CO., LTD.), α-spinasterol (manufactured by ChromaDex, Inc.), ergosterol (manufactured by Wako Pure Chemical Industries, Ltd.), campesterol (manufactured by TAMA BIOCHEMICAL CO., LTD.), glycyrrhizin (manufactured by Wako Pure Chemical Industries, Ltd.), glycyrrhetinic acid (manufactured by Wako Pure Chemical Industries, Ltd.), ginsenoside (manufactured by Wako Pure Chemical Industries, Ltd.), squalene (manufactured by Wako Pure Chemical Industries, Ltd.), squalane (manufactured by Tokyo Chemical Industry Co., Ltd.) and lanosterol (manufactured by ChromaDex, Inc.), which are candidates of a skin irritation suppressant.
As skin irritants, Phorbol 12-Myristate 13-Acetate (PMA, manufactured by Wako Pure Chemical Industries, Ltd.) was used. In addition, as vehicle, olive oil (manufactured by Wako Pure Chemical Industries, Ltd.) was used.
Experiments were conducted by the following group composition. • PMA Only Group: A group with addition of only 0.00001 mol of PMA dispersed in a vehicle, as a test solution. • Test Substance Group: A group with addition of 0.00001 mol of PMA and the test substance which were dispersed in a vehicle, as a test solution.
as §2
Next, a cell survival rate was measured by the MTT method after causing the test solutions of each group to act. Specifically, 50 μL of the test solution of each group was added to the surface of the LabCyte after preculture, was cultured in the incubator with 5% of carbon dioxide concentration at 37° C. for 48 hours, then was transferred to the assay medium comprising 0.5 mg/ml of MTT reagent, and was cultured in the incubator with 5% of carbon oxide level at 37° C. for 3 hours. Then, LabCyte was immersed in 0.3 ml of an isopropanol solution, and the produced blue-purple formazan was extracted for 2 hours. After extraction, an absorbance at 570 nm was measured by a 96 microplate reader. The cell survival rate was calculated as below.
Cell survival rate (%)=(absorbance of Test Substance Group)/(absorbance of PMA Only Group)×100
Subsequently, a production amount of the skin irritation mediator at a test substance concentration with 80% or more of cell survival rate was measured. As skin irritation mediators, PGE2, IL-1α, IL-6, IL-8 were measured.
as §3
Relative production amount=(production amount of the mediator in Test Substance Group)/(production amount of the mediator in PMA Only Group)×100

[3] = system: croton oil-induced mouse ear swelling; assay: Suppression of croton oil-induced mouse ear swelling reaction (Experiment 3); assay type: in vivo
Text: <Suppression of Croton Oil-Induced Mouse Ear Swelling Reaction by the Test Substances>
Suppression of mouse ear swelling was examined through the use of croton oil (Wako Pure Chemical Industries, Ltd.) as a swelling inducer. A 7-week-old ddY female mouse (SPF) was subjected to an experiment. As test substances, cholesterol, glycyrrhizin, glycyrrhetinic acid, squalene, ergosterol, squalane and lanosterol were used. As a vehicle, acetone (Wako Pure Chemical Industries, Ltd.) was used.
Experiments were conducted by the following group composition. • Positive Control Group: A group which received only the vehicle as a primary test solution, and one hour after, received a 2% croton oil solution as a secondary test solution. • Test Substance Group: A group in which only the vehicle was administered as a primary test solution, and one hour after, a 2% croton oil solution including 1% by mass of test substance was administered as a secondary test solution.
An inhibition ratio of ear swelling was calculated as below. In this test, a […] inflammation model is used to examine immediate swelling reactions. In accordance with the group composition, 25 μL of the primary test solution was uniformly coated on back sides of both ears in an etherize mouse, and one hour after, 25 μL of the secondary test solution was uniformly coated in accordance with the group composition. Prior to coating of the secondary test solution, a thickness of auricle was measured by DIAL […] GAUGE (OZAKI MFG CO., LTD.). Furthermore, the secondary test solution was administered, and 6 hours after, the auricular thickness was measured in the same way as mentioned above, and an increased amount of the auricular thickness was set by deducting the thickness measured prior to administration of the secondary test solution. The inhibition ratio of ear swelling was calculated as below.
Inhibition ratio of ear swelling (%)=(increased amount of auricular thickness in Test Substance Group−increased amount of auricular thickness in Negative Control Group)/(increased amount of auricular thickness in Positive Control Group−increased amount of auricular thickness in Negative Control Group)×100

[4] = Drug Plus Cholesterol Group: drug 1 × 10^−3 M plus 1% by mass of cholesterol
[5] = Drug Plus Cholesterol Group: drug 2 × 10^−3 M plus 1% by mass of cholesterol

CN(C)CCC[C@@]1(c2ccc(F)cc2)OCc2cc(C#N)ccc21.O=C(O)C(=O)O [(S)-citalopram Oxalate] was tested, and the “Relative Production Amount of Skin Irritation Mediator when Production Amount in Drug Only Group is Set to 100: IL-1α” value (“Relative Production Amount … IL-1α” below) [1, 4] was 61, the “Relative Production Amount of Skin Irritation Mediator when Production Amount in Drug Only Group is Set to 100: IL-6” value (“Relative Production Amount … IL-6” below) [1, 4] was 85 and the “Relative Production Amount of Skin Irritation Mediator when Production Amount in Drug Only Group is Set to 100: IL-8” value (shortened to “Relative Production Amount … IL-8”) [1, 4] was 64. For the same compound, the “Relative Production Amount of Skin Irritation Mediator when Production Amount in Drug Only Group is Set to 100: PGE2” value (“Relative Production Amount … PGE2” for short) [1, 4] was 46.

CC(C)NCC(O)COc1ccc(COCCOC(C)C)cc1 (stereo not drawn) [Bisoprolol Fumarate] was tested, and the “Relative Production Amount … IL-1α” value [1, 4] was 26, the “Relative Production Amount … IL-6” value [1, 4] was 72 and the “Relative Production Amount … IL-8” value [1, 4] was 73. For the same compound, the “Relative Production Amount … PGE2” value [1, 4] was 87.

For CC(C)[C@H](C)CC[C@@H](C)[C@H]1CC[C@H]2[C@@H]3CC=C4C[C@@H](O)CC[C@]4(C)[C@H]3CC[C@]12C [Campesterol, campesterol], the “Effect on skin irritation mediator production by PMA (in words)” value [2] was “exhibited effects of suppressing the skin irritation mediator production by PMA”, the activity at 1 % ([2]; 48 h, read-out: Relative Production Amount of Skin Irritation Mediator when Production Amount in PMA Only Group is Set to 100: IL-1α) was 53% and the activity at 1 % ([2]; 48 h, read-out: Relative Production Amount of Skin Irritation Mediator when Production Amount in PMA Only Group is Set to 100: IL-6) was 100%. It also gave an activity at 1 % ([2]; 48 h, read-out: Relative Production Amount of Skin Irritation Mediator when Production Amount in PMA Only Group is Set to 100: IL-8) of 106% and an activity at 1 % ([2]; 48 h, read-out: Relative Production Amount of Skin Irritation Mediator when Production Amount in PMA Only Group is Set to 100: PGE2) of 38%.

CC(C)[C@@H](C)/C=C/[C@@H](C)[C@H]1CC[C@H]2C3=CC=C4C[C@@H](O)CC[C@]4(C)[C@H]3CC[C@]12C [Ergosterol, ergosterol] gave an activity at 1 % ([2]; test substance 1 mass % with PMA in olive oil, 48 hours, read-out: Relative Production Amount of Skin Irritation Mediator when Production Amount in PMA Only Group is Set to 100: IL-1α) of 71%, an activity at 1 % ([2]; test substance 1 mass % with PMA in olive oil, 48 hours, read-out: Relative Production Amount of Skin Irritation Mediator when Production Amount in PMA Only Group is Set to 100: IL-6) of 81% and an activity at 1 % ([2]; test substance 1 mass % with PMA in olive oil, 48 hours, read-out: Relative Production Amount of Skin Irritation Mediator when Production Amount in PMA Only Group is Set to 100: IL-8) of 111%. For the same compound, the activity at 1 % ([2]; test substance 1 mass % with PMA in olive oil, 48 hours, read-out: Relative Production Amount of Skin Irritation Mediator when Production Amount in PMA Only Group is Set to 100: PGE2) was 20%, the “Effect on skin irritation mediator production by PMA (in words)” value ([2]; summary of Table 1) was “exhibited effects of suppressing the skin irritation mediator production by PMA” and the “Inhibition Ratio Of Ear Swelling” value ([3]; ddY female mouse, 1% by mass of test substance in 2% croton oil solution, 25 μL on ears, auricular thickness 6 hours after) was 38.1%. The “Effect on croton oil-induced mouse ear swelling reaction (in words)” value ([3]; summary of Table 3) was “suppress croton oil-induced mouse ear swelling reaction”.

With CN1CCCC1c1cccnc1 (stereo not drawn) [Nicotine] the “Relative Production Amount … IL-1α” value [1, 5] was 29, the “Relative Production Amount … IL-6” value [1, 5] was 93 and the “Relative Production Amount … IL-8” value [1, 5] was 67. The “Relative Production Amount … PGE2” value [1, 5] was 58.
